Assay results from USRE47193E1, “Selectively substituted quinoline compounds” (EISAI R&D MANAGEMENT CO., LTD., priority 2013, dated 2019).
Read-outs that look alike come from different tables or passages of the source.

Target: T1, mouse TLR7 (Mus musculus, UniProt P58681)
T1 sequence (P58681 27-1050): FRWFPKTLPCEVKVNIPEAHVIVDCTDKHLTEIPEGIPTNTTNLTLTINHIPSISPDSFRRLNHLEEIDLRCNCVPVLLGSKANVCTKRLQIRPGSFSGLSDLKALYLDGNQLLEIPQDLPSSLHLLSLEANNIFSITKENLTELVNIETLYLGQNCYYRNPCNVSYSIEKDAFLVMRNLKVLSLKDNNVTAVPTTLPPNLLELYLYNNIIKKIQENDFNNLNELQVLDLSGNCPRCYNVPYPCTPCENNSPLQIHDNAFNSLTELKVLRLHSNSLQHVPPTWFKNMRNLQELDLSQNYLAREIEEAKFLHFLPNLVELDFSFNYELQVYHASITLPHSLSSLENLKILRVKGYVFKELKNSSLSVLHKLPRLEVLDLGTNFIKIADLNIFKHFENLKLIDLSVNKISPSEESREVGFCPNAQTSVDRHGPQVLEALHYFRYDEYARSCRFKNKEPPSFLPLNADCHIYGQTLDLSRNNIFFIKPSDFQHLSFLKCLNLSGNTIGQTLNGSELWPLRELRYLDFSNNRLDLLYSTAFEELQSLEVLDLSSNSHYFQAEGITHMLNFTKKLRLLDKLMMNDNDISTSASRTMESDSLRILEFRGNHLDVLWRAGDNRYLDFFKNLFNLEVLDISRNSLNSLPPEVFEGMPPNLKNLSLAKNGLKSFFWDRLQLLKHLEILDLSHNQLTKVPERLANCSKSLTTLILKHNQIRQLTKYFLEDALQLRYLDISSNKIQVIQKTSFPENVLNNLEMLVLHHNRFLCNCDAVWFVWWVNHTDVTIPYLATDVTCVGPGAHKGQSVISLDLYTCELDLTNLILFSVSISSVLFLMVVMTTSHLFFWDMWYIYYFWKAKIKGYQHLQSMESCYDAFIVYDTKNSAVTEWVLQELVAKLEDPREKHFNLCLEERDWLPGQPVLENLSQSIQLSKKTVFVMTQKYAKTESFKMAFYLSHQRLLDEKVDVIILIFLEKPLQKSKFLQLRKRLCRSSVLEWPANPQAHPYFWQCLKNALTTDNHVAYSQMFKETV
Experiment: HEK-293 mouse TLR7 NF-kappaB luciferase reporter assay (CL097)
Format: cell-based
Conditions: HEK-mTLR7, average of three tests
Description: Effects on mouse TLR7 were also compared. Cells were stimulated overnight with TLR7/8 agonist CL097 at pre-determined ED70-80: 3 ug/ml for HEK-hTLR7, 1.5 ug/ml for HEK-mTLR7 and 12 ug/ml for HEK-hTLR8, before reading luminescence intensity. Three tests were performed and IC50 value was determined using Graphpad Prism 6 nonlinear regression curve fit.
HEK-293 cells (ATCC) were engineered to stably express a NF-kappaB transcription factor inducible E-selectin (ELAM-1) luciferase reporter derived from the plasmid pGL3 (Promega) containing base pairs −2241 bp to −254 bp from the promoter of the human E-selectin gene (Accession No. NM_000450). These cells were then subsequently engineered to stably and individually express human TLR4, TLR7 or TLR9 full-length ORF cDNAs. Human TLR4 cDNA (Accession No. NM_138554) was cloned into pcDNA 3.0 expression vector (Invitrogen). TLR4 transfected cells were also engineered to express human MD-2 co-receptor [MD-2 cDNA (Accession No. NM_015364) was cloned into the pEF-BOS vector] and were supplemented with 10 nM soluble CD14 (R&D Systems) in the media to optimize LPS responsiveness. Human TLR9 cDNA (Accession No. NM_017442) was cloned into the pBluescript II KS vector (Agilent). Human TLR7 cDNA (Accession No. NM_016562) was obtained from OriGene. […]

Work on `C[C@@H]1CN(c2ccc(C#N)c3ncccc23)C[C@H](C(=O)N[C@H]2CNC[C@H]2F)O1.Cl` [ER-899742, (2R,6R)-4-(8-cyanoquinolin-5-yl)-N-[(3S,4R)-4-fluoropyrrolidin-3-yl]-6-methylmorpholine-2-carboxamide hydrochloride] yielded an IC50 (IC50 average) of 0.071 µM.
`CCN(CCO)CCCC(C)Nc1ccnc2cc(Cl)ccc12` (centres unmarked) [HCQ, hydroxychloroquine, reference compound] was tested, and the IC50 (read-out: IC50 average) was 14.1 µM.
